For one test, the system named is MIA PaCa-2 cells. Kind of test: MIA PaCa2 cell-based assay (1,536-well high-content imaging ALDEFLUOR assay). Set-up: species or system human. Conditions: Homo sapiens, 0.5 h, ALDEFLUOR BAAA substrate 500 nM, 30 minutes. The method, boiled down: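 High-content ALDEFLUOR imaging readout: BAA-retaining cells in FITC channel scored against Hoechst-counted nuclei. Before imaging, MIA PaCa-2 cells seeded at 1,000 per well received final 500 nM BAAA and 0.5 nM Hoechst with compounds in 16-point series (1.4 nM to 47.8 μM), 30 min, 37° C.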

Another test addresses T1, ALDH1A1 enzyme (Homo sapiens, UniProt P00352).
T1 sequence (P00352 1-501): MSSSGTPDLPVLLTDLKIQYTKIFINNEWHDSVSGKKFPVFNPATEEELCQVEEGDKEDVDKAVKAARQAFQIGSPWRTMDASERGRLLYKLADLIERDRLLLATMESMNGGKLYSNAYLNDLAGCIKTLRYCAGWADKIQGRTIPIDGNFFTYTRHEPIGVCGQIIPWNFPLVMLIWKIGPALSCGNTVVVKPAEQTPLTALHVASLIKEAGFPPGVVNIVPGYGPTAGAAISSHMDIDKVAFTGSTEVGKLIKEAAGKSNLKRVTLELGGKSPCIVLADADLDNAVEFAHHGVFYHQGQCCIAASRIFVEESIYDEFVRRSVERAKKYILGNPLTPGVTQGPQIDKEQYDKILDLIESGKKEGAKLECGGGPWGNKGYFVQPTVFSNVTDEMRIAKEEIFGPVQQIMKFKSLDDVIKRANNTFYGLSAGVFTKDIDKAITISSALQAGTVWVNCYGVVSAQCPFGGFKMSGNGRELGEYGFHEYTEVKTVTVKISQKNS
Kind of test: ALDH1A1 enzymatic assay (in vitro). The test is classed as biochemical. Put shortly: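 ALDH1A1 (20 nM final) in 100 mM HEPES pH 7.5, 0.01% Tween 20 was preincubated 15 min at RT with compound (968 pM–57.2 μM final), then started with 1 mM NAD+ and 80 μM propionaldehyde. NADH fluorescence (ex 340/em 450 nm) followed kinetically for 10 min; change normalized to no-inhibitor and no-enzyme controls for percent inhibition and curve fitting.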

Setting [1] is: ALDH1A1 enzyme 20 nM, NAD+ 1 mM, propionaldehyde 80 μM, read-out: ALDH1A1 IC50.

Like-named read-outs stand apart in the source and are kept apart here. Where only a bound is given, the exact number is not on record here.

26 molecules from patent publication US11795177B2, “Substituted quinoline analogs as aldehyde dehydrogenase 1A1 (ALDH1A1) inhibitors” (THE UNITED STATES OF AMERICA, AS REPRESENTED BY THE …, priority 2017, dated 2023) can be followed below.

What is called IC50 is the midpoint of a concentration-inhibition curve.

As to `COc1ccc2ncc(C(=O)N3CCC(F)(F)CC3)c(N3CCC4(CC3)OCCO4)c2c1` [Example 32, (4,4-difluoropiperidin-1-yl)(6-methoxy-4-(1,4-dioxa-8-azaspiro[4.5]decan-8-yl)quinolin-3-yl)methanone], the IC50 in the test with MIA PaCa-2 cells was greater than 10000 nM; on ALDH1A1 enzyme (setting [1]), 500 to 1000 nM.

`COc1ccc2ncc(C(=O)N3C[C@@H](C)O[C@@H](C)C3)c(N3CCC4(CC3)OCCO4)c2c1` [Example 33, ((2S*,6R*)-2,6-dimethylmorpholino)(6-methoxy-4-(1,4-dioxa-8-azaspiro[4.5]decan-8-yl)quinolin-3-yl)methanone]: the half-inhibitory concentration (IC50) in the test on MIA PaCa-2 cells is greater than 10000 nM; at ALDH1A1 enzyme (setting [1]) it was 1000 to 10000 nM.

`COc1ccc2ncc(C(=O)N3CCS(=O)(=O)CC3)c(N3CCC4(CC3)OCCO4)c2c1` [Example 36, (1,1-dioxidothiomorpholino)(6-methoxy-4-(1,4-dioxa-8-azaspiro[4.5]decan-8-yl)quinolin-3-yl)methanone]: the IC50 in the test on MIA PaCa-2 cells was greater than 10000 nM; on ALDH1A1 enzyme (setting [1]), less than 500 nM.

As to `COc1ccc2ncc(C(=O)N3CCC4(CC3)OCCO4)c(N3CCC4(CC3)OCCO4)c2c1` [Example 37, (6-methoxy-4-(1,4-dioxa-8-azaspiro[4.5]decan-8-yl)quinolin-3-yl)(1,4-dioxa-8-azaspiro[4.5]decan-8-yl)methanone], the figures for the half-maximal inhibitory concentration (IC50) in the test on MIA PaCa-2 cells and on ALDH1A1 enzyme were 500 to 1000 nM and less than 500 nM, respectively.

For `COc1ccc2ncc(C(=O)N3CCN(C(C)=O)CC3)c(N3CCC4(CC3)OCCO4)c2c1` [Example 38, 1-(4-(6-methoxy-4-(1,4-dioxa-8-azaspiro[4.5]decan-8-yl)quinoline-3-carbonyl)piperazin-1-yl)ethanone], the half-maximal inhibitory concentration (IC50) was 1000 to 10000 nM with MIA PaCa-2 cells and less than 500 nM at ALDH1A1 enzyme (setting [1]).

With `COc1ccc2ncc(C(=O)N3CCOCC3)c(N3CCC4(CC3)OCCO4)c2c1` [Example 39, (6-methoxy-4-(1,4-dioxa-8-azaspiro[4.5]decan-8-yl)quinolin-3-yl)(morpholino)methanone], the 50% inhibitory concentration (IC50) is greater than 10000 nM with MIA PaCa-2 cells and 500 to 1000 nM on ALDH1A1 enzyme (setting [1]).

`CCOC(=O)N1CCN(C(=O)c2cnc3ccc(OC)cc3c2N2CCC3(CC2)OCCO3)CC1` [Example 40, Ethyl 4-(6-methoxy-4-(1,4-dioxa-8-azaspiro[4.5]decan-8-yl)quinoline-3-carbonyl)piperazine-1-carboxylate]: the IC50 in the test on MIA PaCa-2 cells is greater than 10000 nM; at ALDH1A1 enzyme (setting [1]) it was less than 500 nM.

For the molecule `CCNC(=O)N1CCN(C(=O)c2cnc3ccc(OC)cc3c2N2CCC3(CC2)OCCO3)CC1` [Example 43, N-ethyl-4-(6-methoxy-4-(1,4-dioxa-8-azaspiro[4.5]decan-8-yl)quinoline-3-carbonyl)piperazine-1-carboxamide], the IC50 was 1000 to 10000 nM in the test with MIA PaCa-2 cells and less than 500 nM at ALDH1A1 enzyme (setting [1]).

`COc1ccc2ncc(C(=O)N3CCN(C(=O)C4CC4)CC3)c(N3CCC(F)(F)CC3)c2c1` [Example 44, (4-(cyclopropanecarbonyl)piperazin-1-yl)(4-(4,4-difluoropiperidin-1-yl)-6-methoxyquinolin-3-yl)methanone]: the half-maximal inhibitory concentration (IC50) in the test with MIA PaCa-2 cells and at ALDH1A1 enzyme (setting [1]) was greater than 10000 nM throughout.

Turning to `COc1ccc2ncc(C(=O)N3CCN(C(=O)C4CC4)CC3)c(N3CCC4(CC3)CC4)c2c1` [Example 46, (4-(cyclopropanecarbonyl)piperazin-1-yl)(6-methoxy-4-(6-azaspiro[2.5]octan-6-yl)quinolin-3-yl)methanone], the half-inhibitory concentration (IC50) in the test with MIA PaCa-2 cells is 1000 to 10000 nM; on ALDH1A1 enzyme (setting [1]), less than 500 nM.

With `CC(C)C(=O)N1CCN(C(=O)c2cnc3ccc(F)cc3c2N2CCC3(CC2)OCCO3)CC1` [Example 49, 1-(4-(6-fluoro-4-(1,4-dioxa-8-azaspiro[4.5]decan-8-yl)quinoline-3-carbonyl)piperazin-1-yl)-2-methylpropan-1-one], the 50% inhibitory concentration (IC50) with MIA PaCa-2 cells is greater than 10000 nM; at ALDH1A1 enzyme (setting [1]) it was less than 500 nM.

Consider `O=C(c1cnc2ccc(F)cc2c1N1CCC2(CC1)OCCO2)N1CCC(F)(F)CC1` [Example 50, (4,4-difluoropiperidin-1-yl)(6-fluoro-4-(1,4-dioxa-8-azaspiro[4.5]decan-8-yl)quinolin-3-yl)methanone], for which the results for the IC50 in the test with MIA PaCa-2 cells and at ALDH1A1 enzyme (setting [1]) were greater than 10000 nM and less than 500 nM, respectively.

As for `CC(=O)N1CCN(C(=O)c2cnc3ccc(F)cc3c2N2CCC3(CC2)OCCO3)CC1` [Example 51, 1-(4-(6-fluoro-4-(1,4-dioxa-8-azaspiro[4.5]decan-8-yl)quinoline-3-carbonyl)piperazin-1-yl)ethanone], the concentration for half-maximal inhibition (IC50) is greater than 10000 nM in the test on MIA PaCa-2 cells and less than 500 nM on ALDH1A1 enzyme (setting [1]).

As to `CS(=O)(=O)N1CCN(C(=O)c2cnc3ccc(F)cc3c2N2CCC3(CC2)OCCO3)CC1` [Example 52, (6-fluoro-4-(1,4-dioxa-8-azaspiro[4.5]decan-8-yl)quinolin-3-yl)(4-(methylsulfonyl)piperazin-1-yl)methanone], the IC50 in the test with MIA PaCa-2 cells was 1000 to 10000 nM; at ALDH1A1 enzyme (setting [1]) it was less than 500 nM.

As to `O=C(c1cnc2ccc(F)cc2c1N1CCC2(CC1)OCCO2)N1CCS(=O)(=O)CC1` [Example 53, (1,1-dioxidothiomorpholino)(6-fluoro-4-(1,4-dioxa-8-azaspiro[4.5]decan-8-yl)quinolin-3-yl)methanone], the IC50 in the test on MIA PaCa-2 cells is greater than 10000 nM; at ALDH1A1 enzyme (setting [1]), 500 to 1000 nM.

On to `CCOC(=O)N1CCN(C(=O)c2cnc3ccc(F)cc3c2N2CCC3(CC2)OCCO3)CC1` [Example 54, Ethyl 4-(6-fluoro-4-(1,4-dioxa-8-azaspiro[4.5]decan-8-yl)quinoline-3-carbonyl)piperazine-1-carboxylate], for which the IC50 in the test with MIA PaCa-2 cells is greater than 10000 nM; at ALDH1A1 enzyme (setting [1]), less than 500 nM.

Regarding `C[C@@H]1CN(C(=O)c2cnc3ccc(F)cc3c2N2CCC3(CC2)OCCO3)C[C@H](C)O1` [Example 55, ((2S*,6R*)-2,6-dimethylmorpholino)(6-fluoro-4-(1,4-dioxa-8-azaspiro[4.5]decan-8-yl)quinolin-3-yl)methanone], the half-maximal inhibitory concentration (IC50) was greater than 10000 nM in the test with MIA PaCa-2 cells and 1000 to 10000 nM on ALDH1A1 enzyme (setting [1]).

Take `CCNC(=O)N1CCN(C(=O)c2cnc3ccc(F)cc3c2N2CCC3(CC2)OCCO3)CC1` [Example 56, N-ethyl-4-(6-fluoro-4-(1,4-dioxa-8-azaspiro[4.5]decan-8-yl)quinoline-3-carbonyl)piperazine-1-carboxamide]: the concentration for half-maximal inhibition (IC50) in the test with MIA PaCa-2 cells is greater than 10000 nM; on ALDH1A1 enzyme (setting [1]), less than 500 nM.

Consider `O=C(c1cnc2ccc(F)cc2c1N1CCC2(CC1)OCCO2)N1CCOCC1` [Example 58, (6-fluoro-4-(1,4-dioxa-8-azaspiro[4.5]decan-8-yl)quinolin-3-yl)(morpholino)methanone], for which the 50% inhibitory concentration (IC50) in the test with MIA PaCa-2 cells is greater than 10000 nM; on ALDH1A1 enzyme (setting [1]), 500 to 1000 nM.

For the molecule `COC1(C)CCN(c2c(C(=O)N3CCN(C(=O)C4CC4)CC3)cnc3ccc(F)cc23)CC1` [Example 61, (4-(cyclopropanecarbonyl)piperazin-1-yl)(6-fluoro-4-(4-methoxy-4-methylpiperidin-1-yl)quinolin-3-yl)methanone], the half-maximal inhibitory concentration (IC50) with MIA PaCa-2 cells was greater than 10000 nM; on ALDH1A1 enzyme (setting [1]) it was less than 500 nM.

As for `O=C(c1cnc2ccc(F)cc2c1N1CCC2(CC1)COC2)N1CCN(C(=O)C2CC2)CC1` [Example 68, (4-(cyclopropanecarbonyl)piperazin-1-yl)(6-fluoro-4-(2-oxa-7-azaspiro[3.5]nonan-7-yl)quinolin-3-yl)methanone], the IC50 was greater than 10000 nM in the test with MIA PaCa-2 cells and 1000 to 10000 nM at ALDH1A1 enzyme (setting [1]).

On to `O=C(c1cnc2ccc(F)cc2c1N1CCC2(CC1)OCCO2)N1CCCN(C(=O)C2CC2)CC1` [Example 69, (4-(cyclopropanecarbonyl)-1,4-diazepan-1-yl)(6-fluoro-4-(1,4-dioxa-8-azaspiro[4.5]decan-8-yl)quinolin-3-yl)methanone], for which the IC50 in the test with MIA PaCa-2 cells is greater than 10000 nM; on ALDH1A1 enzyme (setting [1]), less than 500 nM.

On to `CCC(=O)N1CCN(C(=O)c2cnc3ccc(F)cc3c2N2CCC3(CC2)OCCO3)CC1` [Example 70, 1-(4-(6-fluoro-4-(1,4-dioxa-8-azaspiro[4.5]decan-8-yl)quinoline-3-carbonyl)piperazin-1-yl)propan-1-one], for which the IC50 was 1000 to 10000 nM in the test with MIA PaCa-2 cells and less than 500 nM on ALDH1A1 enzyme (setting [1]).

As to `CC(C)C1CCN(c2c(C(=O)N3CCN(C(=O)C4CC4)CC3)cnc3ccc(F)cc23)CC1` [Example 74, (4-(cyclopropanecarbonyl)piperazin-1-yl)(6-fluoro-4-(4-isopropylpiperidin-1-yl)quinolin-3-yl)methanone], the values for the IC50 with MIA PaCa-2 cells and on ALDH1A1 enzyme (setting [1]) were 1000 to 10000 nM and less than 500 nM, respectively.

Take `CCOC(=O)N1CCN(C(=O)c2cnc3ccc(F)cc3c2N2CCC(C)(C#N)CC2)CC1` [Example 88, Ethyl 4-(4-(4-cyano-4-methylpiperidin-1-yl)-6-fluoroquinoline-3-carbonyl)piperazine-1-carboxylate]: the IC50 in the test on MIA PaCa-2 cells was greater than 10000 nM; on ALDH1A1 enzyme (setting [1]), less than 500 nM.

With `CCNC(=O)N1CCN(C(=O)c2cnc3ccc(F)cc3c2N2CCC(C)(C#N)CC2)CC1` [Example 89, 4-(4-(4-cyano-4-methylpiperidin-1-yl)-6-fluoroquinoline-3-carbonyl)-N-ethylpiperazine-1-carboxamide], the half-maximal inhibitory concentration (IC50) in the test on MIA PaCa-2 cells is greater than 10000 nM; at ALDH1A1 enzyme (setting [1]), less than 500 nM.
